Data published in the supplement of paper PMC11451515.

Tested on: NOMO1
Test: cell viability relative to DMSO control; higher = less cytotoxic
Conditions: 48 h
How it was run: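 Viability is expressed as a percentage of DMSO wells within each plate, and cell-free wells serve as background. Seeding densities in the 1536-well plates (5 μl) were 500 cells/well for NOMO1 or SEM leukemia cells and 1000 cells/well for P12-Ichikawa. Each line was adapted for at least four passages in each medium. Library compounds in DMSO were pin-dosed at 47 μM to 0.79 nM (11 points, threefold), and CellTiter-Glo One luminescence was read after 48 h at 37°C.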

[1] = HPLM + 10% dialyzed FBS, 0.000781 µM
[2] = HPLM + 10% dialyzed FBS, 0.00234 µM
[3] = HPLM + 10% dialyzed FBS, 0.00702 µM
[4] = HPLM + 10% dialyzed FBS, 0.0211 µM
[5] = HPLM + 10% dialyzed FBS, 0.0632 µM
[6] = HPLM + 10% dialyzed FBS, 0.19 µM
[7] = HPLM + 10% dialyzed FBS, 0.569 µM
[8] = HPLM + 10% dialyzed FBS, 1.71 µM
[9] = HPLM + 10% dialyzed FBS, 5.12 µM
[10] = HPLM + 10% dialyzed FBS, 15.4 µM
[11] = HPLM + 10% dialyzed FBS, 46.1 µM
[12] = RPMI 5 mM glucose + 10% FBS, 0.000781 µM
[13] = RPMI 5 mM glucose + 10% FBS, 0.00234 µM
[14] = RPMI 5 mM glucose + 10% FBS, 0.00702 µM
[15] = RPMI 5 mM glucose + 10% FBS, 0.0211 µM
[16] = RPMI 5 mM glucose + 10% FBS, 0.0632 µM
[17] = RPMI 5 mM glucose + 10% FBS, 0.19 µM
[18] = RPMI 5 mM glucose + 10% FBS, 0.569 µM
[19] = RPMI 5 mM glucose + 10% FBS, 1.71 µM
[20] = RPMI 5 mM glucose + 10% FBS, 5.12 µM
[21] = RPMI 5 mM glucose + 10% FBS, 15.4 µM
[22] = RPMI 5 mM glucose + 10% FBS, 46.1 µM
[23] = RPMI 5 mM glucose + 10% dialyzed FBS, 0.000781 µM
[24] = RPMI 5 mM glucose + 10% dialyzed FBS, 0.00234 µM
[25] = RPMI 5 mM glucose + 10% dialyzed FBS, 0.00702 µM
[26] = RPMI 5 mM glucose + 10% dialyzed FBS, 0.0211 µM
[27] = RPMI 5 mM glucose + 10% dialyzed FBS, 0.0632 µM
[28] = RPMI 5 mM glucose + 10% dialyzed FBS, 0.19 µM
[29] = RPMI 5 mM glucose + 10% dialyzed FBS, 0.569 µM
[30] = RPMI 5 mM glucose + 10% dialyzed FBS, 1.71 µM
[31] = RPMI 5 mM glucose + 10% dialyzed FBS, 5.12 µM
[32] = RPMI 5 mM glucose + 10% dialyzed FBS, 15.4 µM
[33] = RPMI 5 mM glucose + 10% dialyzed FBS, 46.1 µM

Compound | cell viability [1] | cell viability [2] | cell viability [3] | cell viability [4] | cell viability [5] | cell viability [6] | cell viability [7] | cell viability [8] | cell viability [9] | cell viability [10] | cell viability [11] | cell viability [12] | cell viability [13] | cell viability [14] | cell viability [15] | cell viability [16] | cell viability [17] | cell viability [18] | cell viability [19] | cell viability [20] | cell viability [21] | cell viability [22] | cell viability [23] | cell viability [24] | cell viability [25] | cell viability [26] | cell viability [27] | cell viability [28] | cell viability [29] | cell viability [30] | cell viability [31] | cell viability [32] | cell viability [33]
CCc1cc2c(cc1N1CCC(N3CCOCC3)CC1)C(C)(C)c1[nH]c3cc(C#N)ccc3c1C2=O | 83.9% | 68.5% | 94.7% | 117% | 135% | 151% | 134% | 121% | 105% | 102% | 68.3% | 91.1% | 83.2% | 102% | 119% | 126% | 132% | 124% | 112% | 117% | 114% | 58.8% | 80.3% | 73.9% | 71.7% | 107% | 125% | 133% | 120% | 111% | 115% | 110% | 52.1%
CC[N+](CC)(CC)CCOc1cccc(OCC[N+](CC)(CC)CC)c1OCC[N+](CC)(CC)CC | – | – | – | – | – | – | – | – | – | – | – | 106% | 118% | 108% | 118% | 136% | 110% | 98% | 98.9% | 104% | 112% | 75.7% | 116% | 118% | 115% | 109% | 127% | 114% | 99.4% | 100% | 111% | 101% | 91%
N[S+](=O)([O-])c1cc2c(cc1Cl)NC(C(Cl)Cl)N[S+]2(=O)[O-] (centres undefined) | 96.9% | 107% | 113% | 117% | 111% | 135% | 136% | 130% | 121% | 125% | 124% | 105% | 96.1% | 105% | 107% | 102% | 103% | 123% | 108% | 102% | 125% | 110% | 112% | 114% | 109% | 118% | 112% | 118% | 120% | 126% | 125% | 141% | 120%
OC[C@H]1O[C@H](C[C@@H]1O)N2\C=C(F)/C(=O)NC2=O | 115% | 120% | 120% | 70.9% | 51.9% | 46.8% | 52.1% | 50.4% | 35.5% | 27.8% | 17.9% | 121% | 118% | 114% | 118% | 120% | 89.9% | 82.6% | 72.7% | 44.1% | 39.1% | 30.2% | 140% | 119% | 106% | 79.2% | 63.9% | 46.4% | 47% | 34.4% | 24.6% | 27.6% | 20.1%
CCCC(C)(COC(N)=O)COC(=O)NC(C)C (centres undefined) | 107% | 123% | 125% | 138% | 143% | 131% | 127% | 130% | 123% | 141% | 140% | 116% | 122% | 132% | 127% | 145% | 130% | 127% | 125% | 137% | 150% | 129% | – | – | – | – | – | – | – | – | – | – | –
C[C@H]1C[C@H]2[C@@H]3CC[C@](O)(C(=O)CO)[C@@]3(C)C[C@H](O)[C@@H]2[C@@]\4(C)/C=C\C(=O)\C=C14 | 82.1% | 110% | 115% | 104% | 113% | 115% | 92.3% | 89.9% | 89.6% | 94.1% | 95.6% | 81.4% | 95.3% | 90.6% | 101% | 104% | 97.1% | 93.1% | 89.5% | 89.5% | 88.4% | 92.8% | 72.9% | 88.5% | 91.4% | 102% | 102% | 93.1% | 100% | 90.4% | 101% | 105% | 84.6%
CC(=O)N[C@@H]1[C@@H](NC(N)=N)\C=C(/O[C@H]1[C@H](O)[C@H](O)CO)C(O)=O | 84.9% | 105% | 116% | 119% | 127% | 119% | 122% | 120% | 122% | 115% | 101% | 102% | 114% | 106% | 111% | 113% | 113% | 118% | 120% | 111% | 121% | 113% | 100% | 106% | 114% | 121% | 117% | 118% | 115% | 116% | 106% | 134% | 124%
CCC[S+](=O)([O-])Nc1ccc(F)c(C(=O)c2c[nH]c3ncc(Cl)cc23)c1F | – | – | – | – | – | – | – | – | – | – | – | 112% | 110% | 115% | 117% | 120% | 121% | 114% | 108% | 107% | 62.6% | 43.8% | 116% | 119% | 117% | 100% | 107% | 128% | 119% | 122% | 123% | 62.3% | 42.9%
CCN(CC)CCOc1ccc(Cc2ccccc2)cc1 | 97.9% | 102% | 113% | 92.9% | 110% | 106% | 113% | 102% | 74.1% | 21.2% | 14.2% | 92.2% | 92.2% | 94.2% | 106% | 102% | 91.8% | 101% | 91.6% | 83.4% | 68.3% | 57% | 99.1% | 96% | 108% | 108% | 97.8% | 108% | 97.9% | 108% | 97.5% | 91.4% | 78.3%
NC(=O)Nc1sc(-c2ccc(F)cc2)cc1C(N)=O | 108% | 112% | 117% | 111% | 121% | 102% | 94.5% | 99.8% | 83.8% | 60.2% | 55.2% | 117% | 99.7% | 115% | 96% | 113% | 110% | 96.7% | 92.4% | 95.9% | 78% | 50.5% | 101% | 111% | 111% | 100% | 103% | 107% | 104% | 79.4% | 75.6% | 62% | 54.1%
C[C@@H]1CN(Cc2ccc(F)cc2)[C@@H](C)CN1C(=O)c1cc2c(C(=O)C(=O)N(C)C)cn(C)c2cc1Cl | 103% | 121% | 118% | 119% | 129% | 139% | 139% | 128% | 131% | 123% | 74.8% | 103% | 122% | 118% | 120% | 123% | 124% | 124% | 108% | 114% | 115% | 118% | 125% | 117% | 115% | 118% | 128% | 127% | 124% | 132% | 119% | 127% | 111%
CCOC(=O)N1c2ccc(C(F)(F)F)cc2[C@@H](N(Cc2cc(C(F)(F)F)cc(C(F)(F)F)c2)C(=O)OC)C[C@H]1CC | 124% | 149% | 123% | 118% | 124% | 139% | 110% | 109% | 120% | 105% | 110% | 121% | 117% | 105% | 118% | 129% | 113% | 115% | 111% | 114% | 112% | 107% | 110% | 117% | 121% | 115% | 121% | 110% | 103% | 112% | 119% | 109% | 93.7%
C=C1C(=O)[C@@]23C(CC[C@@H]1[C@H]2O)[C@@]12CO[C@]3(O)[C@@H](O)[C@@H]1C(C)(C)CC[C@@H]2O (some centres undefined) | 119% | 125% | 124% | 127% | 121% | 117% | 125% | 147% | 111% | 82% | 10.6% | 118% | 122% | 115% | 111% | 135% | 130% | 133% | 137% | 129% | 98.4% | 8.83% | 120% | 123% | 127% | 122% | 121% | 127% | 143% | 138% | 124% | 114% | 14%
COc1cc([C@@H]2c3cc4c(cc3[C@H](O)[C@H]3COC(=O)[C@@H]23)OCO4)cc(OC)c1OC | 89.1% | 102% | 93.4% | 105% | 91.6% | 76.8% | 32.5% | 26.3% | 33.8% | 23.9% | 25.2% | 84.2% | 87.9% | 86.5% | 99.2% | 92.7% | 85.7% | 39.9% | 12.5% | 19.3% | 16.6% | 16% | 92% | 81.5% | 92.9% | 90% | 93.6% | 91.3% | 47.7% | 20% | 19.4% | 20.2% | 17.5%
CCOc1cc2ncc(C#N)c(Nc3ccc(OCc4ccccn4)c(Cl)c3)c2cc1NC(=O)/C=C/CN(C)C | – | – | – | – | – | – | – | – | – | – | – | 119% | 109% | 114% | 105% | 112% | 124% | 49.7% | 20.8% | 13.6% | 11.2% | 8.95% | 116% | 111% | 103% | 109% | 117% | 113% | 83.9% | 36.2% | 18.3% | 13% | 11.5%
CC\12CCC(=O)\C=C1CCC3C2CCC4(C)C3CCC4(O)C#C (centres undefined) | 98.9% | 101% | 106% | 91.1% | 112% | 100% | 98.3% | 98.8% | 77.5% | 86.4% | 88% | 89.9% | 93.2% | 97.4% | 103% | 86.6% | 94.9% | 88.8% | 84% | 87.2% | 88.1% | 74.7% | 99.8% | 101% | 95.8% | 95.5% | 99.6% | 96.1% | 74.9% | 79.2% | 73.9% | 83.5% | 85.7%
